Measured values from patent publication US20190144401A1, “IMINOSYDNONE DERIVATIVES FOR CONJUGATION AND RELEASE OF COMPOUNDS OF INTEREST” (UNIVERSITE DE STRASBOURG, priority 2014, published 2019).

Columns and labels:
[1] = Kinetics of the coupling reaction of iminosydnones with BCN (HPLC monitoring); format: physicochemical; conditions: 100 μM iminosydnone, 150 μM BCN, PBS 0.1M (pH 7.4) containing 10% DMSO
Protocol: (§1) The kinetics of the coupling reaction of different iminosydnones with two cyclic alkynes was studied, according to the following scheme.
(§2) Reactions of iminosydnones with BCN (Bicyclononyne) or TMTH were carried out in PBS/DMSO (9:1) mixtures at 100 μM concentration of sydnones and 150 μM concentration of BCN or TMTH using the following procedure:
(§3) To 900 μL of phosphate buffered saline (PBS, 100 mM) was added 87.5 μL of DMSO, 10 μL of the solution of benzamide (internal standard, 100 mM in DMSO), 1 μL of the solution of iminosydnone (100 mM in DMSO) and 1.5 μL of the solution of BCN or TMTH (100 mM in DMSO). The reaction mixture was injected in HPLC every 30 min and the conversion was followed by measuring the normalized sydnone peak area.
(§4) Second order reaction rate was determined by plotting ln([A]/[B])/([A]−[B]) versus time and analyzing by linear regression (Equation). Second order rate constant corresponds to the determined slope.
(§5) Equation. [A]—concentration of iminosydnones (M); [B]—concentration of BCN (M); t—reaction time (sec); k—reaction rate (M^−1·sec^−1)

[2] = Kinetics of the coupling reaction of iminosydnones with TMTH (HPLC monitoring); format: physicochemical; conditions: 100 μM iminosydnone, 150 μM TMTH, PBS 0.1M (pH 7.4) containing 10% DMSO
Protocol: as §1, §2, §3, §4, §5

| Compound | K (BCN) [1] | K (TMTH) [2] [M⁻¹ s⁻¹] |
| --- | --- | --- |
| [NH-]c1c[n+](-c2ccccc2)no1 [Im1] | no reaction | – |
| CC(=O)[N-]c1c[n+](-c2ccccc2)no1 [Im2] | 0.002 M⁻¹ s⁻¹ | 2.2 |
| Cc1ccc(-[n+]2cc([N-]C(=O)Cc3ccccc3)on2)cc1 [Im3] | 0.004 M⁻¹ s⁻¹ | – |
| Cc1ccc(-[n+]2cc([N-]C(=O)CCc3ccccc3)on2)cc1 [Im4] | 0.034 M⁻¹ s⁻¹ | – |
| Cc1ccc(NC(=O)[N-]c2c[n+](-c3ccccc3)no2)cc1 [Im5] | 0.069 M⁻¹ s⁻¹ | 43.1 |
| Cc1ccc(NC(=O)[N-]c2c[n+](-c3ccc(O)cc3)no2)cc1 [Im6] | 0.008 M⁻¹ s⁻¹ | 4.1 |
| Cc1ccc(NC(=O)[N-]c2c[n+](-c3ccc(C(=O)O)cc3)no2)cc1 [Im7] | 0.108 M⁻¹ s⁻¹ | 61.2 |
| CCOC(=O)c1ccc(NC(=O)[N-]c2c[n+](-c3ccc(O)cc3)no2)cc1 [Im8] | 0.008 M⁻¹ s⁻¹ | 2.5 |
| Cc1ccc(-[n+]2cc([N-]C(=O)NCc3ccccc3)on2)cc1 [Im9] | 0.004 M⁻¹ s⁻¹ | – |
| Cc1ccc(-[n+]2noc([N-]C(=O)NCc3ccccc3)c2Br)cc1 [Im10] | 0.060 M⁻¹ s⁻¹ | – |
| Cc1ccc(-[n+]2cc([N-]C(=O)OCc3ccccc3)on2)cc1 [Im11] | 0.026 M⁻¹ s⁻¹ | – |
| Cc1ccc(-[n+]2noc([N-]C(=O)OCc3ccccc3)c2Br)cc1 [Im12] | 0.150 M⁻¹ s⁻¹ | – |
| N#CC#Cc1ccc(NC(=O)[N-]c2c[n+](-c3ccc(C(=O)O)cc3)no2)cc1 [Im14, (3-(4-carboxyphenyl)-1,2,3-oxadiazol-3-ium-5-yl)((4-(cyanoethynyl)phenyl)carbamoyl)amide] | 0.132 M⁻¹ s⁻¹ | – |
